Entries after “also recorded” stand apart in the source; their conditions may differ. Like-named read-outs stand apart in the source and are kept apart here.
Tests used:
[1] = tested on: HCT116 human colon cancer cells; experiment: cells; conditions: HCT116 cells
Method: (§1) (1) Cells were plated in a 10 cm culture plate to grow a density of about 90%. The medium was removed, and the adherent cells were washed once with a PBS buffer. 1 mL of trypsin was added, and immediately discarded after mixing well. The cells were placed in the incubator and digested for about 5 min, and then about 10 ml of fresh medium was added. 10 μL was taken for counting.
(§2) (2) 10 μL of the well-mixed cells were taken and mixed into 10 μL of Trypan Blue solution, and counted.
(§3) (3) After counting, the cells were diluted to 1×10^5 cells/ml. The diluted cells were mixed well, and plated into a 24-well plate with 500 μL per well, i.e., about 50,000 cells per well.
(§4) (4) The cells plated in the 24-well plate were cultured for about 24h, and then drugs were added. Various test groups comprise 5 groups as follows: the single-drug group of PKF118-310 (with a concentration of 0.1 μM), the group of ascorbic acid (with a concentration of 0.5 mM), the group of PKF118-310 (with a concentration of 0.1 μM) in combination with ascorbic acid (with a concentration of 0.5 mM); the control group that is a cell group to which only solvent DMSO is added; and the blank group that is a group to which no cell is added and only solvent (DMSO) is added.
(§5) (5) After 24h of dosing, the medium was discarded. About 150 μL of trypsin was added and then discarded. The cells were digested for 5 min;
(§6) (6) After digestion, equivalent amounts of PBS were added into each well and mixed uniformly. Then, 10 μL/well of Trypan Blue solution was added and mixed uniformly. 10 μL of the well-mixed solution was taken and counted. In accordance with “Cell viability=Cell Count of Test Group/Cell Count of Control Group×100%”, the cell viability of various groups was calculated.
(§7) The inhibitory effect of PKF118-310 on the MC38 human colon cancer cells and the HCT116 human […] cancer cells was detected in accordance with the corresponding method of Example 1.

[2] = tested on: MC38 human colon cancer cells; experiment: Cell viability, method of Example 1; conditions: MC38 cells
Method: as §1, §2, §3, §4, §5, §6, §7

[3] = tested on: HOS human osteosarcoma cells; experiment: Migration of osteosarcoma cells (scratch lines, photographs at 12h and 24h); type: cell-based; conditions: 0.1 μM PKF118-310 in combination with 0.5 mM Vc
Method: (§8) (1) HOS human osteosarcoma cells and 143B human osteosarcoma cells were subcultured at 37° C., 5% CO2 in an incubator with a RPMI-1640 medium containing 10% fetal bovine serum.
(§9) 10 μL was taken for counting.
(§10) The diluted cells were plated into a 12-well plate with 1 mL per well, i.e., about 100,000 cells per well.
(§11) (4) The cells plated in the 12-well plate were cultured to a density of more than 80%. Then, a control group (to which DMSO was added), as well as groups to which 0.1 μM of PKF118-310, 0.5 mM Vc, and a combination of 0.1 μM of PKF118-310 with 0.5 mM sodium ascorbate were respectively added were prepared. Parallel lines were drawn with the tip of a 10 μL pipette at the bottom of the plate.
(§12) (5) The cells were placed into a 37° C., 5% CO2 incubator for incubation, and observed and recorded by photographs at 12h and 24h.

[4] = tested on: 143B human osteosarcoma cells; experiment: as above; type: cell-based; conditions: 143B cells, 0.1 μM PKF118-310 in combination with 0.5 mM Vc
Method: as §8, §9, §10, §11, §12

[5] = tested on: HOS human osteosarcoma cells; experiment: Cell counts of drug combination administration (Trypan Blue), cell viability
Method: as §1, §2, §3
(§13) (4) The cells plated in the 24-well plate were cultured for about 24h, and then drugs were added. […]
as §5, §6
(§14) The coefficient of drug in interaction (CDI) was used to evaluate the nature of the interaction between the two drugs. The test groups were divided into the control group, the group of A drug, the group of B drug and the group of AB in combination, and used for detecting the cell viability in A, B and AB groups, respectively.

[6] = tested on: 143B human osteosarcoma cells; experiment: as above; conditions: 143B cells
Method: as §1, §2, §3, §13, §5, §6, §14

[7] = tested on: HEK293 cells; experiment: Cell viability compared with HEK293 cells (specificity); type: cell-based; conditions: in combination with ascorbic acid
Method: HEK293 cells, HOS human osteosarcoma cells, and 143B human osteosarcoma cells were subcultured in an incubator at 37° C., 5% CO2 using a RPMI-1640 medium containing 10% fetal bovine serum (FBS).
as §9
(§15) (5) After 24h of dosing, the medium was discarded. […] The cells were digested for 5 min;

[8] = tested on: DB lymphoma cells
Method: as §1, §2, §3, §4, §5, §6
For example, as for the DB lymphoma cells, the control group involves adding the solvent DMSO alone, the Vc group involves adding 2 mM of ascorbic acid, the low-dose PKF group involves adding 2 μM of PKF118-310, the low-dose PKF+Vc group involves adding 2 μM of PKF118-310 and 2 mM of ascorbic acid, the high-dose PKF group involves adding 5 μM of PKF118-310, and the high-dose PKF+the Vc group involves adding 5 μM of PKF118-310 and 2 mM of ascorbic acid.

[9] = tested on: macrophages; experiment: Cell viability of immune cells by cell count; type: cell-based; conditions: 0.1 μM PKF118-310 in combination with 0.5 mM ascorbic acid, 24h
Method: (§16) Immune cells comprise T cells and Macrophages, wherein the T cells are cultured with a 1640 medium, and the macrophages are cultured with a DMEM medium. The particular procedures are follows:
as §9, §15

[10] = tested on: T cells; experiment: Cell viability of immune cells by cell count; type: cell-based; conditions: 0.1 μM PKF118-310 in combination with 0.5 mM ascorbic acid, 24h
Method: as §16, §9, §15

[11] = tested on: 143B cells; experiment: Osteosarcoma tumor model in nude mice (tumor volume, Luciferin fluorescence imaging); type: in vivo, nude mice (BALB/c-nu)
Method: (1) Tumor preparation in nude mice. 6-8-week-old female nude mice (BALB/c-nu) (purchased from Vital River Laboratory Animal Technology Co., Ltd.) were selected. 143B cells were cultured in vitro to the log phase. The cells were collected and re-suspended in a PBS buffer solution. The collected cells were subcutaneously injected to the mammary glands of nude mice with 5×10^6 143B cells/nude mouse to establish a model of tumor in situ.

[12] = 0.3 μM in combination with 0.5 mM sodium ascorbate
[13] = 0.1 μM in combination with 0.5 mM sodium ascorbate

Which results are given for `Cn1ncnc2c(=O)n(C)c(=O)nc1-2` [PKF118-310]?
CDI value [1, 12]: 0.24; cell viability [1, 12]: 22%; cell viability ([1]; single-drug 0.3 μM): 92%; CDI value [2, 12]: 0.15; cell viability [2, 12]: 11%; cell viability ([2]; single-drug 0.3 μM): 88%; migration of cells [3]: significantly inhibit the migration; migration of cells [4]: significantly inhibit the migration; CDI value (coefficient of drug interaction) [5, 13]: 0.12; cell viability [5, 13]: 10%; cell viability ([5]; single-drug 0.1 μM, 24h): 94%; CDI value [6, 13]: 0.04; cell viability [6, 13]: 2%; cell viability ([6]; single-drug 0.1 μM, 24h): 91%; specificity of inhibition of tumor cell viability as compared with the HEK293 cells [7]: can specifically inhibit the cell viability of the 143B cells and the HOS cells; also recorded: can specifically inhibit the activity of the HCT116 cells and the MC38 cells; cell viability ([8]; 2 μM and 2 mM ascorbic acid): 12%; cell viability ([8]; 5 μM and 2 mM ascorbic acid): 11%; CDI value ([8]; high-dose (5 μM) with 2 mM ascorbic acid): 0.18; CDI value ([8]; low-dose (2 μM) with 2 mM ascorbic acid): 0.17; cell viability ([8]; single drug 2 μM (low-dose)): 72%; cell viability ([8]; single drug 5 μM (high-dose)): 67%; effect on immune cells (cell viability) [9]: does not have effect on the immune cells; effect on immune cells (cell viability) [10]: does not have effect on the immune cells; tumor growth, tumor volume with time ([11]; 0.7 mg/kg PKF118-310 s.c. + 1 g/kg ascorbic acid i.v. every 3 days, 6 times, vs blank control and single-drug groups (P<0.001)): significantly inhibits the tumor growth; tumor volume on Day 21 ([11]; 0.7 mg/kg PKF118-310 s.c. + 1 g/kg ascorbic acid i.v., compared with blank control, PKF118-310 and sodium ascorbate groups): substantially smaller; tumor growth, Luciferin fluorescence imaging ([11]; Day 21, 0.7 mg/kg PKF118-310 s.c. + 1 g/kg ascorbic acid i.v. every 3 days, 6 times, vs blank control and single-drug groups): significantly inhibits the tumor growth

Reference: US20230181524A1, “PHARMACEUTICAL COMBINATION AND USE THEREOF” (NATURAL MEDICINE INSTITUTE OF ZHEJIANG YANGSHENGTANG CO., …, priority 2020, published 2023)
